Measurements as given in PubChem BioAssay (NCI).
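Where inhibition never reached the appropriate level, the endpoint shown equals the highest concentration tested. Otherwise, values were interpolated linearly from a five-concentration, 48-hour dose response in 96-well plates. Definition used: TGI = concentration required for complete inhibition of growth.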

What was measured:
Assay in all cases: DTP human tumour cell line panel, 48 h
[1] = system: 786-0 renal
[2] = system: A549 NSCLC
[3] = system: ACHN renal
[4] = system: CAKI-1 renal
[5] = system: CCRF-CEM leukemia
[6] = system: COLO 205 colon
[7] = system: DLD-1 colon
[8] = system: DMS 273 small cell lung
[9] = system: EKVX NSCLC
[10] = system: HCC-2998 colon
[11] = system: HCT-116 colon
[12] = system: HCT-15 colon
[13] = system: HL-60(TB) leukemia
[14] = system: HOP-18 NSCLC
[15] = system: HOP-62 NSCLC
[16] = system: HOP-92 NSCLC
[17] = system: HT29 colon
[18] = system: IGROV1 ovarian
[19] = system: K-562 leukemia
[20] = system: KM12 colon
[21] = system: KM20L2 colon
[22] = system: LOX IMVI melanoma
[23] = system: LXFL 529 NSCLC
[24] = system: M14 melanoma
[25] = system: M19-MEL melanoma
[26] = system: MOLT-4 leukemia
[27] = system: NCI-H226 lung
[28] = system: NCI-H23 lung
[29] = system: NCI-H460 lung
[30] = system: NCI-H522 lung
[31] = system: OVCAR-3 ovarian
[32] = system: OVCAR-4 ovarian
[33] = system: OVCAR-5 ovarian
[34] = system: OVCAR-8 ovarian
[35] = system: RPMI-8226 leukemia
[36] = system: RXF 393 renal
[37] = system: RXF-631 renal
[38] = system: SF-295 CNS
[39] = system: SF-539 CNS
[40] = system: SK-MEL-2 melanoma
[41] = system: SK-MEL-5 melanoma
[42] = system: SK-OV-3 ovarian
[43] = system: SN12C renal
[44] = system: SNB-19 CNS
[45] = system: SNB-75 CNS
[46] = system: SR leukemia
[47] = system: SW-620 colon
[48] = system: TK-10 renal
[49] = system: U251 CNS
[50] = system: UACC-257 melanoma
[51] = system: UACC-62 melanoma
[52] = system: UO-31 renal
[53] = system: XF 498 CNS
[54] = system: A498 renal
[55] = system: MALME-3M melanoma
[56] = system: SF-268 CNS
[57] = system: SK-MEL-28 melanoma
[58] = system: SNB-78 CNS

## Nc1nc(Cl)cc(NCCCCCCNc2cc(Cl)nc(N)n2)n1
[1]
  TGI: > 100 µM
[2]
  TGI: > 100 µM
[3]
  TGI: 22.5 µM
[4]
  TGI: > 100 µM
[5]
  TGI: > 100 µM
[6]
  TGI: > 100 µM
[7]
  TGI: > 100 µM
[8]
  TGI: > 100 µM
[9]
  TGI: > 100 µM
[10]
  TGI: > 100 µM
[11]
  TGI: > 100 µM
[12]
  TGI: > 100 µM
[13]
  TGI: > 100 µM
[14]
  TGI: > 100 µM
[15]
  TGI: > 100 µM
[16]
  TGI: > 100 µM
[17]
  TGI: > 100 µM
[18]
  TGI: > 100 µM
[19]
  TGI: > 100 µM
[20]
  TGI: > 100 µM
[21]
  TGI: > 100 µM
[22]
  TGI: > 100 µM
[23]
  TGI: > 100 µM
[24]
  TGI: > 100 µM
[25]
  TGI: > 100 µM
[26]
  TGI: > 100 µM
[27]
  TGI: > 100 µM
[28]
  TGI: > 100 µM
[29]
  TGI: > 100 µM
[30]
  TGI: > 100 µM
[31]
  TGI: > 100 µM
[32]
  TGI: > 100 µM
[33]
  TGI: > 100 µM
[34]
  TGI: > 100 µM
[35]
  TGI: > 100 µM
[36]
  TGI: > 100 µM
[37]
  TGI: > 100 µM
[38]
  TGI: > 100 µM
[39]
  TGI: > 100 µM
[40]
  TGI: > 100 µM
[41]
  TGI: > 100 µM
[42]
  TGI: > 100 µM
[43]
  TGI: > 100 µM
[44]
  TGI: > 100 µM
[45]
  TGI: > 100 µM
[46]
  TGI: > 100 µM
[47]
  TGI: > 100 µM
[48]
  TGI: > 100 µM
[49]
  TGI: > 100 µM
[50]
  TGI: > 100 µM
[51]
  TGI: 97.8 µM
[52]
  TGI: > 100 µM
[53]
  TGI: 87 µM

## CCOc1ccccc1NC(=O)CCC(=O)NN
[1]
  TGI: > 100 µM
[54]
  TGI: > 100 µM
[2]
  TGI: > 100 µM
[3]
  TGI: > 100 µM
[4]
  TGI: > 100 µM
[5]
  TGI: > 100 µM
[6]
  TGI: > 100 µM
[7]
  TGI: > 100 µM
[8]
  TGI: > 100 µM
[10]
  TGI: > 100 µM
[11]
  TGI: > 100 µM
[12]
  TGI: > 100 µM
[13]
  TGI: > 100 µM
[15]
  TGI: > 100 µM
[16]
  TGI: > 100 µM
[17]
  TGI: > 100 µM
[18]
  TGI: > 100 µM
[19]
  TGI: > 100 µM
[20]
  TGI: > 100 µM
[21]
  TGI: > 100 µM
[22]
  TGI: > 100 µM
[23]
  TGI: > 100 µM
[24]
  TGI: > 100 µM
[55]
  TGI: > 100 µM
[26]
  TGI: > 100 µM
[27]
  TGI: > 100 µM
[28]
  TGI: > 100 µM
[29]
  TGI: > 100 µM
[30]
  TGI: > 100 µM
[31]
  TGI: > 100 µM
[32]
  TGI: > 100 µM
[33]
  TGI: > 100 µM
[34]
  TGI: > 100 µM
[35]
  TGI: > 100 µM
[36]
  TGI: > 100 µM
[37]
  TGI: > 100 µM
[56]
  TGI: > 100 µM
[38]
  TGI: > 100 µM
[39]
  TGI: > 100 µM
[40]
  TGI: > 100 µM
[57]
  TGI: > 100 µM
[41]
  TGI: > 100 µM
[42]
  TGI: > 100 µM
[43]
  TGI: > 100 µM
[44]
  TGI: > 100 µM
[45]
  TGI: > 100 µM
[58]
  TGI: > 100 µM
[46]
  TGI: 70.1 µM
[47]
  TGI: > 100 µM
[48]
  TGI: > 100 µM
[49]
  TGI: > 100 µM
[50]
  TGI: > 100 µM
[51]
  TGI: > 100 µM
[52]
  TGI: > 100 µM
[53]
  TGI: > 100 µM
